# Measurements published in patent US10391173B2, “Anti-ar agent and radiation therapy for androgen receptor positive cancer” (The Cleveland Clinic Foundation, priority 2016, dated 2019).
# Experiments:
# MDAMB453 cells [1] = assay: Growth survival assay after IR with DHT or ENZ pretreatment; format: cell-based, human
# Method: (a) (Top) Cells were cultured in steroid-deprived media −/+ DHT for 24 hours and then treated with IR: mock (ϕ), 4 Gy, or 6 Gy. Cells were then supplemented with hormone-proficient media at 48 hours post-IR. Cell number was determined on day 14-21. (Bottom) Cells were cultured in hormone-proficient media for 24 hours without or with enzalutamide (ENZ) and then treated with IR; mock (ϕ) or 4 Gy. Error bars represent normalized s.e.m of at least three experiments. (b) MCF7, BT474, CAMA1, HCC202, and MDAMB453 cells were treated with ENZ, ENZ+IR, DHT, or DHT+IR as in (a). […] Error bars represent normalized s.e.m of at least three experiments and the Student's t-test was used for statistical analysis. *, P<0.05. […]
# (§2) Cells were plated using a Multidrop Combi liquid handler (Thermo Fisher) in at least quadruplicates for each time point at three cell densities (range 25-225 cells per well) in a white 384-well plate (Corning, N.Y.). […] Relative luminescence units were measured using an Envision multilabel plate reader (Perkin Elmer) with a measurement time of 0.1 seconds. Luminescence signal is proportional to the amount of ATP present. […] The luminescence signal was plotted as a function of cell density and a cell density within the linear range for luminescence (or growth) was selected to generate integral survival for each cell line. […]
# [2] = tested on: MCF7, BT474, CAMA1, HCC202, MDAMB453, HMC18 cells; assay: Growth survival assay after IR across several breast cancer cell lines; format: cell-based, human; settings: only in cell lines that expressed AR, independent of ER and ErbB2 activity
# Method: (a) (Top) Cells were cultured in steroid-deprived media −/+ DHT for 24 hours and then treated with IR: mock (ϕ), 4 Gy, or 6 Gy. Cells were then supplemented with hormone-proficient media at 48 hours post-IR. Cell number was determined on day 14-21. (Bottom) Cells were cultured in hormone-proficient media for 24 hours without or with enzalutamide (ENZ) and then treated with IR; mock (ϕ) or 4 Gy. Error bars represent normalized s.e.m of at least three experiments. (b) MCF7, BT474, CAMA1, HCC202, and MDAMB453 cells were treated with ENZ, ENZ+IR, DHT, or DHT+IR as in (a). HMC18 cells were treated similarly but were profiled by clonogenic survival assays. […]
# as §2
# MDAMB453 cells [3] = assay: Neutral comet assay; format: cell-based, human; settings: pretreated 24 hours prior to 15 Gy of irradiation; ENZ 20 μM
# Method: (§1) Single-cell gel electrophoresis was conducted in alkaline or neutral buffer according to the manufacturer's instructions, Trevigen (Gaithersburg, Md.). Slides were blinded and enumerated by a single user.
# MDAMB453 cells [4] = assay: γH2AX formation and resolution kinetics (Western blot); format: cell-based, human; settings: 3 Gy; effect persisted at 24 hours
# [5] = tested on: C4-2 prostate cancer cells; settings: AR-positive cells; 2 Gy
# Method: (a) (Top) Cells were cultured in steroid-deprived media −/+ DHT for 24 hours and then treated with IR: mock (ϕ), 4 Gy, or 6 Gy. Cells were then supplemented with hormone-proficient media at 48 hours post-IR. […] (Bottom) Cells were cultured in hormone-proficient media for 24 hours without or with enzalutamide (ENZ) and then treated with IR; mock (ϕ) or 4 Gy. Error bars represent normalized s.e.m of at least three experiments. […] Error bars represent normalized s.e.m of at least three experiments and the Student's t-test was used for statistical analysis. *, P<0.05. […] Error bars represent s.e.m of at least three experiments and the Student's t-test was used for statistical analysis. *, P<0.05. (d) Cells were cultured in hormone-proficient (FBS) media for 24 hours −/+ ENZ and then treated with IR: mock (ϕ 3 Gy (HMC18 and MDAMB453), or 2 Gy (C4-2). Cells were cultured in steroid-deprived media for 48 hours, treated −/+ DHT for 24 hours, and then treated with IR: mock (ϕ), 3 Gy (HMC18 and MDAMB453), or 2 Gy (C4-2). γH2AX, HDAC1, and actin levels were measured at the indicated time points. Relative intensity of γH2AX was calculated by ImageJ64. (e) MDAMB453 cells were cultured in steroid-replete, steroid-deficient, or steroid-deficient with 1 nM DHT for 24 hours, then treated with irradiation. Cells were harvested and expression of γDNAPKcs was analyzed. […]
# MDAMB453 cells [6] = settings: steroid-deprived media supplemented with 1 nM DHT for 24 hours
# Method: (d) Cells were cultured in hormone-proficient (FBS) media for 24 hours −/+ ENZ and then treated with IR: mock (ϕ 3 Gy (HMC18 and MDAMB453), or 2 Gy (C4-2). Cells were cultured in steroid-deprived media for 48 hours, treated −/+ DHT for 24 hours, and then treated with IR: mock (ϕ), 3 Gy (HMC18 and MDAMB453), or 2 Gy (C4-2). γH2AX, HDAC1, and actin levels were measured at the indicated time points. Relative intensity of γH2AX was calculated by ImageJ64. (e) MDAMB453 cells were cultured in steroid-replete, steroid-deficient, or steroid-deficient with 1 nM DHT for 24 hours, then treated with irradiation. Cells were harvested and expression of γDNAPKcs was analyzed.
# Whole cell lysates were prepared using M-PER lysis buffer and clarified by centrifugation. Proteins were separated by SDS-PAGE and transferred onto 0.45 μM nitrocellulose membranes (Maine Manufacturing; Sanford, Me.). After primary antibody incubation for 1-2 hours at room temperature, washings, and incubation with secondary antibodies, blots were developed with a chemoluminescence system (Amersham/GE Healthcare). For γH2AX measurements, proteins were transferred onto 0.2 μM nitrocellulose (Bio-Rad).
# The phosphorylation of DNAPKcs on Ser2056 was examined, which is indicative of activated DNAPKcs, in MDAMB453 cells.
# BT474 cells = assay: Neutral comet assay; format: cell-based, human; settings: irradiated (10 Gy) after 24 hours of treatment with ENZ (20 μM)
# Method: FIG. 16: AR regulates DNA damage and repair in AR, ER positive cells.
# as §1
# HMC18 cells = assay: γH2AX formation and resolution kinetics (Western blot); format: cell-based, human; settings: AR-negative cells; 3 Gy
# [7] = tested on: MDAMB453 orthotopic xenografts; assay: MDAMB453 orthotopic xenograft study
# Method: (g) MDAMB453 cells were orthotopically injected into the mammary gland of NSG mice and block randomized into one of four treatment arms as shown. Tumor volume was measured daily. Error bars represent normalized s.e.m of at least seven mice in each treatment arm. *, P<0.05 compared with all other treatment conditions based on ANOVA and Tukey Contrasts. **, P<0.05 for interaction based on two-way ANOVA. […] This cohort received ENZ at 25 mg kg^−1. (i) Average weight for each arm in both cohorts was measured weekly. Data are expressed as the means±s.e. of at least seven mice in each treatment arm.
# Female NSG mice, 6-8 weeks of age, were obtained from the Cleveland Clinic Biological Resources Unit facility. All mouse studies were conducted under a protocol approved by the Cleveland Clinic Institutional Animal Care and Use Committee MDAMB453 cells were resuspended in serum free media and injected into the inguinal mammary gland. Once tumors reached 200 mm^3, mice were block randomized and assigned to vehicle, enzalutamide, vehicle plus radiotherapy, or enzalutamide plus radiotherapy. Two cohorts consisting of these four arms underwent treatment. Vehicle consisted of a volume of 5 mL per kg of PEG-400 solution containing 1.5%/0 of DMSO for cohort 1 and 2.5% DMSO for cohort 2 via oral gavage daily. Cohort 1 received enzalutamide at 15 mg kg^−1 and cohort 2 received enzaluatmide at 25 mg kg^−1. Radiotherapy was delivered to a dose of 1.5 Gy in three fractions once tumor size reached 250 mm^3. Treatment was not blinded to the investigator. Tumor volume was measured daily. Mice were sacrificed once their tumors reached an approximate size of 1,000 mm^3 or at treatment days 21-28. The significance of the difference between treatment groups was assessed by one-way and the interaction between drug and radiation was measured by two-way ANOVA.
Compound,"Cell growth after radiation (MDAMB453 cells [1]; DHT re-supplementation in steroid-deprived media before radiation, IR 4 or 6 Gy)",Protection or sensitization to radiation [2],DNA damage (double-strand breaks) (MDAMB453 cells [3]),Levels of γH2AX after irradiation (MDAMB453 cells [4]),γH2AX resolution [5],γDNAPKcs levels following irradiation (MDAMB453 cells [6]),"Cell number after radiation (MDAMB453 cells [1]; hormone-proficient media, ENZ 24 hours before IR 4 Gy, compared to vehicle)",Double-strand breaks (BT474 cells),Kinetics of γH2AX formation and resolution (HMC18 cells),"Tumor growth, ENZ alone ([7]; 15 mg kg^−1, used alone)","Tumor suppression, interaction with radiotherapy ([7]; 15 mg kg^−1 plus radiotherapy)","Tumor growth, ENZ ([7]; 25 mg kg^−1)",Body weight loss during the course of treatment ([7]; ENZ 25 mg kg^−1 and radiation),"Tumor growth, combination with ionizing radiation ([7]; ENZ at 15 mg kg^−1 or 25 mg kg^−1 plus ionizing radiation)"
"C[C@]12CCC(=O)C[C@@H]1CC[C@@H]1[C@@H]2CC[C@]2(C)[C@@H](O)CC[C@@H]12 [DHT, Dihydrotestosterone]",dose dependent rescue of cell growth,protection,decreased,decreased,hastened γH2AX resolution,maintained γDNAPKcs at similar levels to those cells grown in the steroid-replete media,,,,,,,,
"CNC(=O)c1ccc(N2C(=S)N(c3ccc(C#N)c(C(F)(F)F)c3)C(=O)C2(C)C)cc1F [ENZ, enzalutamide]",,sensitization,increased DNA damage,increased shortly after irradiation,,,decreased cell number compared to vehicle alone,increased double-strand breaks,unaffected,no effects on tumor growth,interactive tumor suppression with radiotherapy,Suppression of tumor growth,~10%,more effective suppression of tumor growth than either modality alone
